Test results taken from patent publication US11065251B2, “PAK1 inhibitors and uses thereof” (Albert Einstein College of Medicine, priority 2016, dated 2021).
Values after ≈ are worked out from the molar mass of the structure shown. Like-named read-outs stand apart in the source and are kept apart here.

How the values were obtained:
PAK1 = PAK1 (Homo sapiens, UniProt Q13153); assay: PAK1 IC50 determination, Z'-LYTE kinase assay; assay type: biochemical; conditions: [ATP]=10×Km; [PAK1]=1 ng; read-out: IC50 against PAK1
Description: Protocol for determining IC50 Values for test compounds at [ATP]=10×Km; [PAK1]=1 ng
Add 2 ml 5× Kinase Buffer to 8 ml water to prepare […] of Kinase Buffer A.
• Thaw the concentrated stock of test compound at room temperature. • 2.1. Add 10 μl of 100% DMSO to row A, columns 2-11 (wells A2-A11) in a 96-well assay plate (non-binding surface). To well A1, add 15 μl of the concentrated stock of test compound. This will be the highest concentration of test compound in a 10-point titration curve. Use a concentration that is 100× the final desired 1× concentration per 10 μl kinase reaction. For example, if the final 1× concentration of 100 μM is desired for the highest concentration of test compound in the 10 point titration curve, add 15 μl of 10 mM test compound to well A1. • 2.2. Titrate the 100× test compound three-fold across the assay plate from well A1 to well A10. To perform this threefold titration, transfer 5 μl of the 100× test compound from well A1 to the 10 μl of 100% DMSO in well A2. Repeat for wells A2-A10. Discard the final 5 μl from well A10 so that all wells contain 10 μl. […] This completes the 10-point three-fold titration of test compound at 100× concentration. • 2.3. Transfer a 2 μl aliquot of the 100× test compound titration series from each well in row A of the 96-well assay plate (wells A1-A12) to row B (wells B1-B12). Add 48 μl of complete kinase reaction buffer to each well in row B to dilute the 100× three-fold titration series of test compound to 4× (the DMSO will also be diluted, to 4%). • 2.4. Transfer 2.5 μl of the 4× concentrated three-fold titration series of test compound from row B of the 96-well assay plates to quadruplicate wells of a 384-well assay plate. Each well in columns 21-24 should contain 2.5 μl of 4% DMSO (no compound) in complete kinase reaction buffer. This 2.5 μl addition of 4× test compound in 4% DMSO produces a 1× concentration of test compound in 1% DMSO for a 10 μl kinase reaction. • 2.5. Dispense 2.5 μl of complete kinase reaction buffer to each well in columns 23-24 of the 384-well assay plate.
• 1. Prepare 500 μl of 4 μM Z′-LYTE® Phospho-peptide by adding 2 μl of 1 mM Z′-LYTE® Phospho-peptide to 498 μl of complete kinase reaction buffer. • 2. Dispense 5 μl of the 4 μM Z′-LYTE® Phospho-peptide (2×) to each well in column 24 of the 384-well assay plate. • 3. Prepare 1000 μl of 4 μM Z′-LYTE® Peptide Substrate (2×)/2× kinase solution in complete kinase reaction buffer. If necessary, prepare an intermediate dilution of the kinase in complete kinase reaction buffer before preparing the Z′-LYTE™ Peptide Substrate (2×)/2× kinase solution. Use the appropriate 2× kinase concentration in the assay to phosphorylate 20-50% of the 0% inhibition controls at the ATP concentration desired. • 4. […]

[1] = system: other PAK family members (PAK2, PAK3, PAK4, PAK6, PAK7); assay: Inhibitory activity against other PAK family members; assay type: biochemical; conditions: in words
Description: A cell-based small molecule screening with 50,024 compounds was performed based on AML cell lines that grow in a PAK1-dependent manner, which has been previously described (Pandolfi et al., 2015). This was followed by single point PAK1 enzymatic activity screening against 360 compounds. Forty-six identified compounds that scored positive in this assay were subjected to enzymatic activity assays against other PAK family kinases including PAK2, PAK3, PAK4, PAK6, and PAK7. […] Those compounds were studied in further detail and key biochemical, pharmacokinetic, and structure-activity characteristics were determined.

larger kinase panel = assay: Selectivity against a larger kinase panel; assay type: binding; conditions: in words
[2] = Microsomal stability, human (HLM); assay type: in vitro ADME; conditions: for half-life: read-out: t½
[3] = Microsomal stability, rat (RLM); assay type: in vitro ADME; conditions: for half-life: read-out: t½
[4] = Microsomal stability, mouse (MLM); assay type: in vitro ADME
[5] = Pharmacokinetic (PK) assessment in rats; assay type: in vivo
Solubility assessment = assay type: physicochemical; conditions: kinetic from dmso stock
Caco-2 permeability = assay type: in vitro ADME; conditions: human
[6] = liver microsomes, human microsomes
[7] = liver microsomes, rat microsomes
[8] = rat, plasma, PO, 10 mg/kg, mean

Chain of PAK1 (Q13153 whole entry): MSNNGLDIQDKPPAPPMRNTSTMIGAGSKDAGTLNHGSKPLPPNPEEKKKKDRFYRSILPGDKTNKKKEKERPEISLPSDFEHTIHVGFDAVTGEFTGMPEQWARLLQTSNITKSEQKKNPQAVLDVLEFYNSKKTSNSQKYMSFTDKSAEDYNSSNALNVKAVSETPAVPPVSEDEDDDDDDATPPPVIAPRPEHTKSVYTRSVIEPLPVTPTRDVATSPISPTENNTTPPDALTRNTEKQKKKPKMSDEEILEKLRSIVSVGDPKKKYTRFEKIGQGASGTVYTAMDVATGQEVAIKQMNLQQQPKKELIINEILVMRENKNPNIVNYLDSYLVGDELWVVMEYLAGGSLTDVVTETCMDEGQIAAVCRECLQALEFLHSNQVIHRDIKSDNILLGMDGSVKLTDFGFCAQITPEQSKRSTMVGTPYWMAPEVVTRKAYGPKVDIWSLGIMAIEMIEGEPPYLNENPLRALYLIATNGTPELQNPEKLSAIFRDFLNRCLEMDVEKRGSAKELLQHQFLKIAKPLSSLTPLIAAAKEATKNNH

CCC1CCCCN1c1cc(C)nc2nc(-c3ccc(C)cc3)nn12 (stereo not drawn) [Compound D245-0091, 7-(2-Ethylpiperidin-1-yl)-5-methyl-2-(p-tolyl)-[1,2,4]triazolo[1,5-a]pyrimidine]
IC50 (PAK1): 5 µM
inhibitory activity against any of the other PAK family members [1]: no significant inhibitory activity
inhibition against a larger kinase panel (larger kinase panel): no significant inhibition
ER ([2]; human microsomes): 0.83
CLh ([2]; human microsomes, in mL/min/kg (unit assumed)): 18.11
microsomal CLint [2, 6]: 114 µL/min/mg
half-life [2, 6]: 24.3 min
microsomal CLint [3, 7]: 159 µL/min/mg
half-life [3, 7]: 17.4 min
ER ([3]; rat microsomes): 0.84
CLh ([3]; rat microsomes, in mL/min/kg (unit assumed)): 46.14
microsomal CLint ([4]; liver microsomes): 243 µL/min/mg
half-life ([4]; liver microsomes, read-out: t½): 11.4 min
ER ([4]; mouse microsomes): 0.91
CLh ([4]; mouse microsomes, in mL/min/kg (unit assumed)): 82.27
K el ([5]; IV, 2 mg/kg, mean): 0.42 h⁻¹
Fabs, % (from AUCINF) ([5]; PO 10 mg/kg versus IV 2 mg/kg): 9.4%
Fabs, % (from AUClast) ([5]; PO 10 mg/kg versus IV 2 mg/kg): 9.1%
K el ([5]; PO, 10 mg/kg, mean): 0.37 h⁻¹
C0 ([5]; rat, plasma, IV, 2 mg/kg, mean): 1010 ng/mL
Cmax ([5]; rat, plasma, IV, 2 mg/kg, mean): 740 ng/mL
MRT inf ([5]; rat, plasma, IV, 2 mg/kg, mean): 1.69 h
Tmax ([5]; rat, plasma, IV, 2 mg/kg, mean): 4.8 min
clearance ([5]; rat, plasma, IV, 2 mg/kg, mean): 46.8 mL/min/kg
MRT last ([5]; rat, plasma, IV, 2 mg/kg, mean, read-out: MRTlast): 1.46 h
half-life ([5]; rat, plasma, IV, 2 mg/kg, mean, read-out: T ½ (converted)): 99.6 min
CL/F [5, 8]: 525 mL/min/kg
Cmax [5, 8]: 85.7 ng/mL
MRT inf [5, 8]: 3.01 h
Tmax [5, 8]: 70.2 min
MRT last ([5]; rat, plasma, PO, 10 mg/kg, mean, read-out: MRTlast): 2.52 h
half-life ([5]; rat, plasma, PO, 10 mg/kg, mean, read-out: T ½ (converted)): 112 min
Vd/F ([5]; rat, plasma, PO, 10 mg/kg, mean, read-out: Vz/F): 84.8 L/kg
AUC(0-inf) ([5]; rat, plasma, iv, 2 mg/kg, IV, 2 mg/kg, mean, read-out: AUCINF): 714 ng·h/mL
AUC(0-t) ([5]; rat, plasma, iv, 2 mg/kg, IV, 2 mg/kg, mean, read-out: AUClast): 695 ng·h/mL
Vd ([5]; rat, plasma, iv, 2 mg/kg, IV, 2 mg/kg, mean, read-out: Vss): 4.77 L/kg
Vd ([5]; rat, plasma, iv, 2 mg/kg, IV, 2 mg/kg, mean, read-out: Vz): 6.74 L/kg
AUC(0-inf) ([5]; rat, plasma, iv, 2 mg/kg, IV, dose 2 mg/kg, summary section, no unit printed there, read-out: AUCINF, IV plasma): 714 ng·h/mL
AUC(0-t) ([5]; rat, plasma, iv, 2 mg/kg, IV, dose 2 mg/kg, summary section, no unit printed there, read-out: AUClast, IV plasma): 695 ng·h/mL
AUC(0-inf) ([5]; rat, plasma, po, 10 mg/kg, PO, 10 mg/kg, mean, read-out: AUCINF): 334 ng·h/mL
AUC(0-t) ([5]; rat, plasma, po, 10 mg/kg, PO, 10 mg/kg, mean, read-out: AUClast): 315 ng·h/mL
AUC(0-inf) ([5]; rat, plasma, po, 10 mg/kg, PO, dose 10 mg/kg, summary section, no unit printed there, read-out: AUCINF, PO plasma): 334 ng·h/mL
AUC(0-t) ([5]; rat, plasma, po, 10 mg/kg, PO, dose 10 mg/kg, summary section, no unit printed there, read-out: AUClast, PO plasma): 315 ng·h/mL

CCn1c(=O)c(-c2ccc(-c3nc(C)c[nH]3)cc2Cl)cc2cnc(Nc3ccc(N4CCN(C)CC4)cc3)nc21 [Compound 42-0125_1]
IC50 (PAK1): < 0.03 µM
microsomal CLint ([2]; human, human liver microsomes, HLM): 12 µL/min/mg
half-life [2, 6]: 119 min
half-life [3, 7]: 147 min
microsomal CLint ([3]; rat, rat liver microsomes, RLM): 9 µL/min/mg
Cl_obs ([5]; IV, 3 mg/kg): 298 mL/h/kg
Vss_obs ([5]; IV, 3 mg/kg): 1705 mL/kg
Biovailability ([5]; PO 30 mg/kg versus IV 3 mg/kg): 13.9%
Cmax ([5]; rat, plasma, IV, 3 mg/kg): 3620 ng/mL
Tmax ([5]; rat, plasma, IV, 3 mg/kg): 10.2 min
MRT last ([5]; rat, plasma, IV, 3 mg/kg, read-out: MRT MRT last): 5 h
half-life ([5]; rat, plasma, IV, 3 mg/kg, read-out: T ½ HL_Lambda_z (converted)): 300 min
Cmax ([5]; rat, plasma, PO, 30 mg/kg): 943 ng/mL
Tmax ([5]; rat, plasma, PO, 30 mg/kg): 480 min
MRT last ([5]; rat, plasma, PO, 30 mg/kg, read-out: MRT MRT last): 10 h
half-life ([5]; rat, plasma, PO, 30 mg/kg, read-out: T ½ HL_Lambda_z (converted)): 371 min
AUC(0-t) ([5]; rat, plasma, iv, 3 mg/kg, IV, 3 mg/kg, read-out: AUC0→t AUC last): 9750 ng·h/mL
AUC(0-inf) ([5]; rat, plasma, iv, 3 mg/kg, IV, 3 mg/kg, read-out: AUC0→∞ AUC INF_obs): 10100 ng·h/mL
AUC(0-t) ([5]; rat, plasma, po, 30 mg/kg, PO, 30 mg/kg, read-out: AUC0→t AUC last): 12600 ng·h/mL
AUC(0-inf) ([5]; rat, plasma, po, 30 mg/kg, PO, 30 mg/kg, read-out: AUC0→∞ AUC INF_obs): 14000 ng·h/mL
solubility (Solubility assessment; aqueous buffer, UB pH 2, 1% DMSO, read-out: Solubility in UB pH 2, 1% DMSO): 59 µM (≈ 32.8 µg/mL)
solubility (Solubility assessment; aqueous buffer, UB pH 7, 1% DMSO, read-out: Solubility in UB pH 7, 1% DMSO): 25 µM (≈ 13.9 µg/mL)
solubility (Solubility assessment; simulated gastric fluid, SGF, 1% DMSO, read-out: Solubility in SGF, 1% DMSO): 58 µM (≈ 32.2 µg/mL)
efflux ratio (Caco-2 permeability; Caco-2, read-out: Assym index): 1
Papp A→B (Caco-2 permeability; Caco-2, A-B): 3.9 ×10⁻⁶ cm/s
Papp B→A (Caco-2 permeability; Caco-2, B-A): 3.8 ×10⁻⁶ cm/s
